Where only a bound is given, the exact number is not on record here.

Chain of human wild type-CFTR (P13569 whole entry): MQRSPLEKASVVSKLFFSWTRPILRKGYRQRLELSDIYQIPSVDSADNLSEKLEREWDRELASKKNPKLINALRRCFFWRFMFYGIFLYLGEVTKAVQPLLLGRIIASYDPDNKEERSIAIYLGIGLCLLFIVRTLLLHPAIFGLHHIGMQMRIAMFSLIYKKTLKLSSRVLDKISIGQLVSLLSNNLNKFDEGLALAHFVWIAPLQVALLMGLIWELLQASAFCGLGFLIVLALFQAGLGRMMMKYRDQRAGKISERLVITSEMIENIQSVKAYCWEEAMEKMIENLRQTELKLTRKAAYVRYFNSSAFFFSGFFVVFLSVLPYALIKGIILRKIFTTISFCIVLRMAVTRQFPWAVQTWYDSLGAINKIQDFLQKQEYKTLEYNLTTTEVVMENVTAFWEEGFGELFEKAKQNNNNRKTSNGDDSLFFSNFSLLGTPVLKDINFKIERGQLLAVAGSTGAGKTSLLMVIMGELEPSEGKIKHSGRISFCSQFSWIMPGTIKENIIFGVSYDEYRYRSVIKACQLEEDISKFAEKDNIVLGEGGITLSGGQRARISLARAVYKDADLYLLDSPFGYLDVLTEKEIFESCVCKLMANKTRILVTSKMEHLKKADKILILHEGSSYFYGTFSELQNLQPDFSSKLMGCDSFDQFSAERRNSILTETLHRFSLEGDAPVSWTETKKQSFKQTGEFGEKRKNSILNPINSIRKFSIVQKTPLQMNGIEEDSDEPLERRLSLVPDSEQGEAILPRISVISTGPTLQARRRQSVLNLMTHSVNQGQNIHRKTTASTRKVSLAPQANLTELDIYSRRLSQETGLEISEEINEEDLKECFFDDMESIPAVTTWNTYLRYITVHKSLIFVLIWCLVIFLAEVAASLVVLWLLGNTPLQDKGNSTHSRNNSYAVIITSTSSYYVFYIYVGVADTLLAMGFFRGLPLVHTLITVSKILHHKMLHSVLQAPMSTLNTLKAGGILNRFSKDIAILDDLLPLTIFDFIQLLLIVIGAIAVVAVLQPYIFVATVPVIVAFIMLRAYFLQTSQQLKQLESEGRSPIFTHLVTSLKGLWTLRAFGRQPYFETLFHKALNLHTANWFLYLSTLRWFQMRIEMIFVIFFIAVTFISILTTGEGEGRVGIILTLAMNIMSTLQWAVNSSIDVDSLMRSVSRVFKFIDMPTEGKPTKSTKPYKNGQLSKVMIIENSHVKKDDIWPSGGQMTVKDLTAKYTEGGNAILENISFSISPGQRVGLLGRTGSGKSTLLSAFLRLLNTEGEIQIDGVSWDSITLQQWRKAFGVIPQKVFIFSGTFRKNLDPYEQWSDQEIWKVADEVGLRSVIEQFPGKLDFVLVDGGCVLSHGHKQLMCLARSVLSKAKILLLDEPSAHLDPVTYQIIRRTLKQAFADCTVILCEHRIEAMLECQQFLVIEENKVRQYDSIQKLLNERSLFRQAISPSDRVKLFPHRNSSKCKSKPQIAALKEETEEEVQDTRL

The experiment has as its target human wild type-CFTR (Homo sapiens, UniProt P13569). Kind of experiment: Cell-based YFP assay. More on the design: expressed in transfected cells; host or cells: CHO-K1 (Chinese hamster ovary). The note with it: CHO-K1 cells expressing human wild type-CFTR and YFP-H148Q/I152L; forskolin 20 μM = 100% activity; read-out: Cell-based YFP Assay (EC50) Concentration Range. The procedure, abridged: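 I⁻-driven YFP fluorescence quenching at 37 °C: 2 s baseline, addition of 140 mM iodide solution, then 14 s of readings at 0.4 s intervals. Cells were CHO-K1 expressing human wild-type CFTR plus YFP-H148Q/I152L. EC50 derived from averaged triplicates.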
Regarding `COc1ccc(-c2ccnc3cc(C(=O)Nc4ccc(C(=O)NCCCN5CCN(C)CC5)cc4)nn23)cc1OC` [Compound 177, 7-(3,4-dimethoxyphenyl)-N-(4-((3-(4-methylpiperazin-1-yl)propyl)carbamoyl)phenyl)pyrazolo[1,5-a]pyrimidine-2-carboxamide], the EC50 was at least 2000 nM.
For `COc1ccc(-c2ccnc3cc(NC(=O)Nc4ccc(C(=O)O)cc4)nn23)cc1OC` [Compound 107, 4-(3-(7-(3,4-dimethoxyphenyl)pyrazolo[1,5-a]pyrimidin-2-yl)ureido)benzoic acid], the EC50 is at least 2000 nM.
With `COC(=O)c1ccc(NC(=O)Nc2cc3nccc(-c4ccc(OC)c(OC)c4)n3n2)cc1` [Compound 93, methyl 4-(3-(7-(3,4-dimethoxyphenyl)pyrazolo[1,5-a]pyrimidin-2-yl)ureido)benzoate], the EC50 fell in the range of 200 to 2000 nM.
On to `COc1ccc(-c2ccnc3cc(C(=O)N4CCc5cc(C(=O)N6CCN(C)CC6)ccc54)nn23)cc1OC` [Compound 250, (7-(3,4-dimethoxyphenyl)pyrazolo[1,5-a]pyrimidin-2-yl)(5-(4-methylpiperazine-1-carbonyl)indolin-1-yl) methanone], for which the EC50 lay within 200 to 2000 nM.
Regarding `COc1ccc(-c2ccnc3cc(C(=O)Nc4ccc(C(=O)NCC(=O)O)cc4)nn23)cc1OC` [Compound 30, (4-(7-(3,4-dimethoxyphenyl)pyrazolo[1,5-a]pyrimidine-2-carboxamido)benzoyl)glycine], the EC50 was at least 2000 nM.
As to `COCCOCOC(=O)[C@H]1CC[C@H](NC(=O)c2cc3nccc(-c4ccc(OC)c(OC)c4)n3n2)CC1` [Compound 328, (2-methoxyethoxy)methyl (1R,4R)-4-(7-(3,4-dimethoxyphenyl)pyrazolo [1,5-a]pyrimidine-2-carboxamido)cyclohexane-1-carboxylate], the EC50 was 200 to 2000 nM.
In the case of `COc1ccc(-c2ccnc3cc(C(=O)Nc4ccc(N5CCNCC5)cn4)nn23)cc1OC` [Compound 286, 7-(3,4-dimethoxyphenyl)-N-(5-(piperazin-1-yl)pyridin-2-yl)pyrazolo [1,5-a]pyrimidine-2-carboxamide], the EC50 is under 200 nM.
As to `COc1ccc(-c2ccnc3cc(C(=O)N4CCCc5cc(C(=O)N6CCN(C)CC6)ccc54)nn23)cc1OC` [Compound 235, (7-(3,4-dimethoxyphenyl)pyrazolo[1,5-a]pyrimidin-2-yl)(6-(4-methylpiperazine-1-carbonyl)-3,4-dihydroquinolin-1(2H)-yl)methanone], the EC50 is at least 2000 nM.
`COCCOCOc1ccc(NC(=O)c2cc3nccc(-c4ccc(OC)c(OC)c4)n3n2)cc1` [Compound 346, 7-(3,4-dimethoxyphenyl)-N-(4-((2-methoxyethoxy)methoxy)phenyl)pyrazolo[1,5-a]pyrimidine-2-carboxamide]: the EC50 was under 200 nM.
Consider `COc1ccc(-c2ccnc3cc(C(=O)Nc4ccc(C(=O)NCCN(C)C)cc4)nn23)cc1OC` [Compound 118, 7-(3,4-dimethoxyphenyl)-N-(4-((2-(dimethylamino)ethyl)carbamoyl)phenyl) pyrazolo[1,5-a]pyrimidine-2-carboxamide], for which the EC50 was at least 2000 nM.
Take `COc1ccc(-c2ccnc3cc(C(=O)N4CC[C@H](O)C4)nn23)cc1OC` [Compound 148, (S)-(7-(3,4-dimethoxyphenyl)pyrazolo[1,5-a]pyrimidin-2-yl)(3-hydroxypyrrolidin-1-yl)methanone]: the EC50 is at least 2000 nM.
Consider `O=C(Nc1ccc(O)cc1)c1cc2nccc(-c3ccc(O)c(O)c3)n2n1` [Compound 38, 7-(3,4-dihydroxyphenyl)-N-(4-hydroxyphenyl)pyrazolo [1,5-a]pyrimidine-2-carboxamide], for which the EC50 lay in the range of 200 to 2000 nM.
Take `COc1ccc(-c2ccnc3cc(C(=O)N[C@H]4CC[C@H](N5CCOCC5)CC4)nn23)cc1OC` [Compound 345, 7-(3,4-dimethoxyphenyl)-N-((1R,4R)-4-morpholinocyclohexyl) pyrazolo[1,5-a]pyrimidine-2-carboxamide]: the EC50 is at least 2000 nM.

Source of the values: patent US20240199623A1 (ILDONG PHARMACEUTICAL CO., LTD., priority 2020, published 2024).
